# Experimental data published in the OligoGym collection.
# “And” between values parts separate entries of the source, which are not always exact repeats. Equal entries are not always repeated. HELM strings list units from the 5' end as sugar, base in round brackets, then linkage (d deoxyribose, r ribose, m 2'-O-methyl, p phosphodiester). Methylation of C is not given here. [moe] = 2'-O-(2-methoxyethyl) (MOE); [cEt] = constrained ethyl (cEt); [sp] = phosphorothioate linkage
# Biological target: HBV
# Details: ASO
Substance,"target mRNA inhibition (HepG2, 0.07 µM)",also measured
RNA1{[cEt](T)[sp].d(T)[sp].[cEt](T)[sp].d(A)[sp].[cEt](T)[sp].d(G)[sp].d(C)[sp].d(C)[sp].d(T)[sp].d(A)[sp].d(C)[sp].d(A)[sp].d(G)[sp].d(C)[sp].[moe](C)[sp].[moe](T)}$$$$V2.0,–,"target mRNA inhibition (HepG2, 0.009375 µM): 12%; target mRNA inhibition (HepG2, 0.01875 µM): 14%; target mRNA inhibition (HepG2, 0.0375 µM): 32%; target mRNA inhibition (HepG2, 0.075 µM): 47%; target mRNA inhibition (HepG2, 0.15 µM): 62%; target mRNA inhibition (HepG2, 0.3 µM): 77%"
RNA1{[moe](T)[sp].[moe](T)[sp].[moe](A)[sp].d(T)[sp].d(G)[sp].d(C)[sp].d(C)[sp].d(T)[sp].d(A)[sp].d(C)[sp].d(A)[sp].d(G)[sp].[moe](C)[sp].[moe](C)[sp].[moe](T)[sp].[moe](C)}$$$$V2.0,51% and 41%,–
RNA1{[moe](G)[sp].[moe](G)[sp].[moe](T)[sp].[moe](G)[sp].d(A)[sp].d(A)[sp].d(G)[sp].d(C)[sp].d(G)[sp].d(A)[sp].d(A)[sp].d(G)[sp].d(T)[sp].[moe](G)[sp].[moe](C)[sp].[moe](A)}$$$$V2.0,55% and 59%,–
RNA1{[moe](T)[sp].[moe](C)[sp].[moe](C)[sp].[moe](G)[sp].[moe](C)[sp].d(A)[sp].d(G)[sp].d(T)[sp].d(A)[sp].d(T)[sp].d(G)[sp].d(G)[sp].d(A)[sp].d(T)[sp].[moe](C)[sp].[moe](G)[sp].[moe](G)}$$$$V2.0,77% and 68%,–
RNA1{[moe](C)[sp].[moe](G)[sp].[moe](C)[sp].[moe](A)[sp].d(G)[sp].d(T)[sp].d(A)[sp].d(T)[sp].d(G)[sp].d(G)[sp].d(A)[sp].d(T)[sp].d(C)[sp].[moe](G)[sp].[moe](G)[sp].[moe](C)[sp].[moe](A)}$$$$V2.0,81% and 67%,–
RNA1{[moe](G)[sp].[moe](A)[sp].[moe](A)[sp].d(C)[sp].d(T)[sp].d(G)[sp].d(G)[sp].d(A)[sp].d(G)[sp].d(C)[sp].d(C)[sp].d(A)[sp].d(C)[sp].[cEt](C)[sp].[cEt](A)[sp].[cEt](G)}$$$$V2.0,59% and 58%,–
RNA1{[moe](C)[sp].[moe](G)[sp].[moe](A)[sp].[moe](A)[sp].[moe](C)[sp].d(C)[sp].d(A)[sp].d(C)[sp].d(T)[sp].d(G)[sp].d(A)[sp].d(A)[sp].d(C)[sp].d(A)[sp].[moe](A)[sp].[moe](A)[sp].[moe](T)}$$$$V2.0,34% and 32%,–
RNA1{[moe](G)[sp].[moe](C)[sp].[moe](A)[sp].[moe](G)[sp].[moe](A)[sp].[moe](G)[sp].d(G)[sp].d(T)[sp].d(G)[sp].d(A)[sp].d(A)[sp].d(G)[sp].d(C)[sp].d(G)[sp].d(A)[sp].[moe](A)[sp].[moe](G)}$$$$V2.0,65% and 68%,–
RNA1{[moe](T)[sp].[moe](G)[sp].[moe](A)[sp].[moe](A)[sp].[moe](G)[sp].[moe](C)[sp].d(G)[sp].d(A)[sp].d(A)[sp].d(G)[sp].d(T)[sp].d(G)[sp].d(C)[sp].d(A)[sp].d(C)[sp].[moe](A)[sp].[moe](C)}$$$$V2.0,84% and 64%,–
RNA1{[moe](T)[sp].[moe](G)[sp].d(A)[sp].d(G)[sp].d(G)[sp].d(C)[sp].d(A)[sp].d(T)[sp].d(A)[sp].d(G)[sp].d(C)[sp].[moe](A)[sp].[moe](G)[sp].[moe](C)[sp].[moe](A)[sp].[moe](G)}$$$$V2.0,59% and 52%,–
RNA1{[moe](G)[sp].[moe](G)[sp].[moe](T)[sp].d(G)[sp].d(A)[sp].d(A)[sp].d(G)[sp].d(C)[sp].d(G)[sp].d(A)[sp].d(A)[sp].d(G)[sp].[moe](T)[sp].[moe](G)[sp].[moe](C)[sp].[moe](A)}$$$$V2.0,67% and 60%,–
RNA1{[moe](G)[sp].[moe](G)[sp].[moe](C)[sp].[moe](A)[sp].[moe](T)[sp].d(A)[sp].d(G)[sp].d(C)[sp].d(A)[sp].d(G)[sp].d(C)[sp].d(A)[sp].d(G)[sp].d(G)[sp].[moe](A)[sp].[moe](T)}$$$$V2.0,55% and 41%,–
RNA1{[moe](C)[sp].[cEt](C)[sp].[cEt](A)[sp].d(A)[sp].d(T)[sp].d(T)[sp].d(T)[sp].d(A)[sp].d(T)[sp].d(G)[sp].d(C)[sp].d(C)[sp].d(T)[sp].[cEt](A)[sp].[cEt](C)[sp].[moe](A)}$$$$V2.0,42% and 18%,–
RNA1{[moe](G)[sp].[moe](A)[sp].[moe](G)[sp].d(A)[sp].d(G)[sp].d(A)[sp].d(A)[sp].d(G)[sp].d(T)[sp].d(C)[sp].d(C)[sp].d(A)[sp].d(C)[sp].[cEt](C)[sp].[cEt](A)[sp].[cEt](C)}$$$$V2.0,38% and 23%,–
RNA1{[moe](A)[sp].[cEt](G)[sp].[cEt](G)[sp].d(C)[sp].d(A)[sp].d(C)[sp].d(A)[sp].d(G)[sp].d(C)[sp].d(T)[sp].d(T)[sp].d(G)[sp].d(G)[sp].[cEt](A)[sp].[cEt](G)[sp].[moe](G)}$$$$V2.0,12% and 37%,–
RNA1{[moe](G)[sp].[cEt](T)[sp].d(T)[sp].d(C)[sp].d(C)[sp].d(G)[sp].d(C)[sp].d(A)[sp].d(G)[sp].d(T)[sp].d(A)[sp].d(T)[sp].[cEt](G)[sp].[moe](G)[sp].[cEt](A)[sp].[moe](T)}$$$$V2.0,76% and 53%,–

Substance,"target mRNA inhibition (HepG2, 0.07 µM)",also measured
RNA1{[moe](G)[sp].[moe](A)[sp].[moe](G)[sp].d(G)[sp].d(T)[sp].d(G)[sp].d(A)[sp].d(A)[sp].d(G)[sp].d(C)[sp].d(G)[sp].d(A)[sp].[moe](A)[sp].[moe](G)[sp].[moe](T)[sp].[moe](G)}$$$$V2.0,57% and 54%,–
RNA1{[moe](C)[sp].[cEt](G)[sp].[cEt](C)[sp].d(A)[sp].d(G)[sp].d(T)[sp].d(A)[sp].d(T)[sp].d(G)[sp].d(G)[sp].d(A)[sp].d(T)[sp].d(C)[sp].[cEt](G)[sp].[cEt](G)[sp].[moe](C)}$$$$V2.0,81% and 78%,–
RNA1{[moe](A)[sp].[cEt](G)[sp].d(G)[sp].d(A)[sp].d(G)[sp].d(T)[sp].d(T)[sp].d(C)[sp].d(C)[sp].d(G)[sp].d(C)[sp].d(A)[sp].[cEt](G)[sp].[moe](T)[sp].[cEt](A)[sp].[moe](T)}$$$$V2.0,74% and 87%,"target mRNA inhibition (HepG2, 0.0092593 µM): 12%; target mRNA inhibition (HepG2, 0.0277778 µM): 40%; target mRNA inhibition (HepG2, 0.0833333 µM): 62%; target mRNA inhibition (HepG2, 0.25 µM): 82%"
RNA1{[moe](C)[sp].[moe](A)[sp].[moe](A)[sp].d(T)[sp].d(T)[sp].d(T)[sp].d(A)[sp].d(T)[sp].d(G)[sp].d(C)[sp].d(C)[sp].d(T)[sp].d(A)[sp].[cEt](C)[sp].[cEt](A)[sp].[cEt](G)}$$$$V2.0,30% and 20%,–
RNA1{[moe](T)[sp].[moe](G)[sp].[moe](A)[sp].d(A)[sp].d(G)[sp].d(C)[sp].d(G)[sp].d(A)[sp].d(A)[sp].d(G)[sp].d(T)[sp].d(G)[sp].d(C)[sp].[cEt](A)[sp].[cEt](C)[sp].[cEt](A)}$$$$V2.0,67% and 70%,–
RNA1{[moe](G)[sp].[moe](A)[sp].[moe](T)[sp].[moe](G)[sp].[moe](A)[sp].d(G)[sp].d(G)[sp].d(C)[sp].d(A)[sp].d(T)[sp].d(A)[sp].d(G)[sp].d(C)[sp].d(A)[sp].[moe](G)[sp].[moe](C)}$$$$V2.0,45% and 31%,–
RNA1{[moe](A)[sp].[moe](C)[sp].[moe](G)[sp].d(G)[sp].d(G)[sp].d(C)[sp].d(A)[sp].d(A)[sp].d(C)[sp].d(A)[sp].d(T)[sp].d(A)[sp].d(C)[sp].[cEt](C)[sp].[cEt](T)[sp].[cEt](T)}$$$$V2.0,43% and 40%,–
RNA1{[moe](G)[sp].[moe](G)[sp].[moe](A)[sp].[moe](G)[sp].[moe](T)[sp].[moe](T)[sp].d(C)[sp].d(C)[sp].d(G)[sp].d(C)[sp].d(A)[sp].d(G)[sp].d(T)[sp].d(A)[sp].d(T)[sp].[moe](G)[sp].[moe](G)}$$$$V2.0,–,"target mRNA inhibition (HepG2, 0.0092593 µM): 2%; target mRNA inhibition (HepG2, 0.0277778 µM): 25%; target mRNA inhibition (HepG2, 0.0833333 µM): 55%; target mRNA inhibition (HepG2, 0.25 µM): 74%"
RNA1{[moe](G)[sp].[moe](A)[sp].d(G)[sp].d(G)[sp].d(C)[sp].d(A)[sp].d(T)[sp].d(A)[sp].d(G)[sp].d(C)[sp].d(A)[sp].[moe](G)[sp].[moe](C)[sp].[moe](A)[sp].[moe](G)[sp].[moe](G)}$$$$V2.0,0%,–
RNA1{[moe](A)[sp].[cEt](G)[sp].d(G)[sp].d(C)[sp].d(A)[sp].d(G)[sp].d(A)[sp].d(G)[sp].d(G)[sp].d(T)[sp].d(G)[sp].d(A)[sp].[cEt](A)[sp].[moe](A)[sp].[cEt](A)[sp].[moe](A)}$$$$V2.0,39% and 37%,–
RNA1{[moe](G)[sp].[moe](A)[sp].[moe](G)[sp].d(A)[sp].d(A)[sp].d(G)[sp].d(T)[sp].d(C)[sp].d(C)[sp].d(A)[sp].d(C)[sp].d(C)[sp].d(A)[sp].[cEt](C)[sp].[cEt](G)[sp].[cEt](A)}$$$$V2.0,60% and 71%,–
RNA1{[moe](C)[sp].[moe](G)[sp].[moe](T)[sp].d(G)[sp].d(C)[sp].d(A)[sp].d(G)[sp].d(A)[sp].d(G)[sp].d(G)[sp].d(T)[sp].d(G)[sp].[moe](A)[sp].[moe](A)[sp].[moe](G)[sp].[moe](C)[sp].[moe](G)}$$$$V2.0,70% and 64%,–
RNA1{[moe](A)[sp].[moe](A)[sp].[moe](G)[sp].[moe](A)[sp].[moe](T)[sp].d(G)[sp].d(A)[sp].d(G)[sp].d(G)[sp].d(C)[sp].d(A)[sp].d(T)[sp].d(A)[sp].d(G)[sp].[moe](C)[sp].[moe](A)[sp].[moe](G)}$$$$V2.0,26% and 34%,–
RNA1{[moe](G)[sp].[moe](A)[sp].[moe](A)[sp].[moe](G)[sp].[moe](T)[sp].d(C)[sp].d(C)[sp].d(A)[sp].d(C)[sp].d(C)[sp].d(A)[sp].d(C)[sp].d(G)[sp].d(A)[sp].[moe](G)[sp].[moe](T)[sp].[moe](C)}$$$$V2.0,5% and 2%,–
RNA1{[moe](G)[sp].[moe](T)[sp].[moe](G)[sp].d(A)[sp].d(A)[sp].d(G)[sp].d(C)[sp].d(G)[sp].d(A)[sp].d(A)[sp].d(G)[sp].d(T)[sp].d(G)[sp].[cEt](C)[sp].[cEt](A)[sp].[cEt](C)}$$$$V2.0,74% and 84%,"target mRNA inhibition (HepG2, 0.0092593 µM): 0%; target mRNA inhibition (HepG2, 0.0277778 µM): 32%; target mRNA inhibition (HepG2, 0.0833333 µM): 68%; target mRNA inhibition (HepG2, 0.25 µM): 86%"
